The source of these data is US7179829B2, “Substituted imidazolidines, process for their preparation, and their use as a medicament or diagnostic, and medicament comprising them” (Sanofi-aventis Deutschland GmbH, priority 2001, dated 2007).

SMILES strings stand for the structures. Where a name gives a salt, the structure may show the parent alone. Read-outs that look alike come from different tables or passages of the source.

The target of data set [1] is rNHE3 (Rattus norvegicus, UniProt P26433). The data set is described as follows: recovery of intracellular pH (pHi) after acidification, BCECF fluorescence. It is filed as cell-based. On the procedure: In this test, the recovery of the intracellular pH (pHi) after an acidification, which starts when the NHE is capable of functioning, even under bicarbonate-free conditions, was determined. For this purpose, the pHi was determined using the pH-sensitive fluorescent dye BCECF (calbiochem, the precursor BCECF-AM is employed). The cells were initially loaded with BCECF. The BCECF fluorescence was determined in a “ratio fluorescence spectrometer” (Photon Technology International, South Brunswick, N.J., USA) with excitation wavelengths of 505 and 440 nm and an emission wavelength of 535 nm, and was converted into the pHi using calibration plots. The cells were incubated in NH4Cl buffer (pH 7.4) (NH4Cl buffer: 115 mM NaCl, 20 mM NH4Cl, 5 mM KCl, 1 mM CaCl2, 1 mM MgSO4, 20 mM Hepes, 5 mM glucose, 1 mg/ml BSA; a pH of 7.4 is established with 1 M NaOH) even during the BCECF loading. The intracellular acidification was induced by addition of 975 μl of an NH4Cl-free buffer (see below) to 25 μl aliquots of the cells incubated in NH4Cl buffer. The subsequent rate of pH recovery was recorded in the case of NHE1 for two minutes, in the case of NHE2 for five minutes and in the case of NHE3 for three minutes. To calculate the inhibitory power of the tested substances, the cells were initially investigated in buffers in which complete or absolutely no pH recovery took place. For complete pH recovery (100%), the cells were incubated in Na^+-containing buffer (133.8 mM NaCl, 4.7 mM KCl, 1.25 mM CaCl2, 1.25 mM MgCl2, 0.97 mM Na2HPO4, 0.23 mM NaH2PO4, 5 mM Hepes, 5 mM glucose, a pH of 7.0 is established with 1 M NaOH). […] Recovery of the intracellular pH at the tested concentration of a substance was expressed as a percentage of the maximum recovery. Using the Sigma-Plot program, the IC50 value of the substance in question was calculated for the individual NHE subtypes using the percentages for pH recovery.

The subject of data set [2] is adrenergic alpha2 receptor. The settings on record: cited from earlier work.
Data set [3] has as its system imidazoline I1 receptor. The settings on record: cited from earlier work.
Data set [4] concerns the target NHE3 (Oryctolagus cuniculus, UniProt P26432). The settings on record: cited from earlier work.
Setting [5] is: pH recovery recorded for three minutes, read-out: IC50 [μM], (rNHE3).

Sequence of rNHE3 (P26433 29-831): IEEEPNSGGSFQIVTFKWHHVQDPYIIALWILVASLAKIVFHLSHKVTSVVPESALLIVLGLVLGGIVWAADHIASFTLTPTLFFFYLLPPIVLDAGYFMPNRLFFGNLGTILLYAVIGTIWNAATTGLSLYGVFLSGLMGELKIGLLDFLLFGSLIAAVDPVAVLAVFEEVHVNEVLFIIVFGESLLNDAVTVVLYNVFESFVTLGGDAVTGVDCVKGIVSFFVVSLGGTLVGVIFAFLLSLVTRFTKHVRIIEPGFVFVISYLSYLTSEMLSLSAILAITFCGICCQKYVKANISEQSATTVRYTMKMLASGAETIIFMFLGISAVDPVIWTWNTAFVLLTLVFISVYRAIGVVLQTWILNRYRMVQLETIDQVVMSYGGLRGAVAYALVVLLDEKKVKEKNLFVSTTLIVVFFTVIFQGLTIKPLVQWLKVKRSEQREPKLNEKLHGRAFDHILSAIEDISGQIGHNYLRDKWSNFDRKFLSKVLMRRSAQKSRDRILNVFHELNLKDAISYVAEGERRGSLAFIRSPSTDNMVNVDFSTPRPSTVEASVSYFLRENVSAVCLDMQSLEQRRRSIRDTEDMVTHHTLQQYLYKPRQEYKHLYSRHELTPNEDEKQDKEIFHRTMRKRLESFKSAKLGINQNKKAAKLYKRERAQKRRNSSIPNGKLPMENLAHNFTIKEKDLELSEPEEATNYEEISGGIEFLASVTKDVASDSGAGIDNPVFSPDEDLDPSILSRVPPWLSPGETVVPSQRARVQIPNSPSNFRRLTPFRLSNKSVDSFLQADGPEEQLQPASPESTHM
Sequence of NHE3 (P26432 30-832): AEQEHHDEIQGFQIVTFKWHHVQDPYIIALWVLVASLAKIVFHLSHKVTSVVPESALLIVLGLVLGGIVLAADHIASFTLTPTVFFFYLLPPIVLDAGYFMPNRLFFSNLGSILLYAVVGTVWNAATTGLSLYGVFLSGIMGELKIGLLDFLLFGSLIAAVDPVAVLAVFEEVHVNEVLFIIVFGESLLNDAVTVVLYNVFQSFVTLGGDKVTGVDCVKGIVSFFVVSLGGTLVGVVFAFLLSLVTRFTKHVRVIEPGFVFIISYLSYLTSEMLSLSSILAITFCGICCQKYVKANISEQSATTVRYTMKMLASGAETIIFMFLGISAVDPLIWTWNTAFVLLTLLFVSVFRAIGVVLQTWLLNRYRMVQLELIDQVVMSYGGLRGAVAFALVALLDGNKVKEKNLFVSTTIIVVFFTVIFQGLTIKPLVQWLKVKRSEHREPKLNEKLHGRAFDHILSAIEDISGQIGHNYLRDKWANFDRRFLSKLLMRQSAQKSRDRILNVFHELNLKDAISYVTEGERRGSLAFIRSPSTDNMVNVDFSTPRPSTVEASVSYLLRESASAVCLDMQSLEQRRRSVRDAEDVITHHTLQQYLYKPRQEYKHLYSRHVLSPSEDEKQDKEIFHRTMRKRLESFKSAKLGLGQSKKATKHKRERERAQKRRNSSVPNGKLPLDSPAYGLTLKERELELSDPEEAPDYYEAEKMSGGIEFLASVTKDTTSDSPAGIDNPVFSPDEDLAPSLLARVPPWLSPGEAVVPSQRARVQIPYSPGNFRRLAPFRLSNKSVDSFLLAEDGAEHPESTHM

One may read the melting point as the temperature, or range, at which the solid turns liquid. Regarding `Cl.c1ccc(Oc2ccccc2N=C2N[C@@H]3CCCC[C@H]3N2)cc1`, the melting point is 110 °C.
As a reminder, the IC50 is the midpoint of a concentration-inhibition curve. Regarding `CC(C)[C@@H]1NC(=Nc2c(Cl)cccc2Cl)N[C@H]1C(C)C` (racemic) [Example 7, trans-(2,6-Dichlorophenyl)-(4,5-diisopropylimidazolidin-2-ylidene)amine hydrochloride], the IC50 in data set [1] (setting [5]) is 1.1 µM.
In turn, `Cl.FC(F)(F)c1cccc(Cl)c1N=C1N[C@H]2CCCC[C@@H]2N1` (relative stereo) [Example 5, trans-(2-Chloro-6-trifluoromethylphenyl)-(octahydrobenzimidazol-2-ylidene)amine hydrochloride] showed a melting point of 160 to 165 °C. In addition, the IC50 in data set [1] (setting [5]) came to 19 µM.
Consider `Clc1cccc(Cl)c1N=C1NCCN1` [Clonidine], for which the “affinity for the adrenergic alpha2 receptor” value in data set [2] was “high affinity”. In data set [3], the “affinity for the imidazoline I1 receptor” value is recorded as “high affinity”.
As for `CC1NC(=Nc2c(Cl)cccc2Cl)NC1C` (centres unmarked) [Example 12, (2,6-dichlorophenyl)-(4,5-dimethylimidazolidin-2-ylidene)amine nitric acid salt], the IC50 in data set [1] was around 3 µM.
For the compound `CC(C)[C@@H](CC[C@@H](C)[C@H]1CC[C@H]2[C@@H]3[C@H](O)C[C@H]4C[C@@H](NCCCNCCCCN)CC[C@]4(C)[C@H]3CC[C@]12C)OS(=O)(=O)O` [Squalamine], in data set [4], the “time to maximum potency as NHE3 inhibitor” value was “reaches its maximum potency only after one hour”.
